In patent US20240360194A1, “New Peptides as Potent and Selective GIP Receptor Agonists” (Sanofi, priority 2021, published 2024):
≈ marks a conversion by molar mass, not a printed value. Like-named read-outs stand apart in the source and are kept apart here.

Experiments:
[1] = biological target: T1, human GIP receptor (hGIPR) (Homo sapiens, UniProt P48546); assay: Binding assay, displacement of [125I]GIP from HEK-293 membranes over-expressing GIPR (SPA); settings: [125I]GIP displacement
T1 sequence (P48546 22-466): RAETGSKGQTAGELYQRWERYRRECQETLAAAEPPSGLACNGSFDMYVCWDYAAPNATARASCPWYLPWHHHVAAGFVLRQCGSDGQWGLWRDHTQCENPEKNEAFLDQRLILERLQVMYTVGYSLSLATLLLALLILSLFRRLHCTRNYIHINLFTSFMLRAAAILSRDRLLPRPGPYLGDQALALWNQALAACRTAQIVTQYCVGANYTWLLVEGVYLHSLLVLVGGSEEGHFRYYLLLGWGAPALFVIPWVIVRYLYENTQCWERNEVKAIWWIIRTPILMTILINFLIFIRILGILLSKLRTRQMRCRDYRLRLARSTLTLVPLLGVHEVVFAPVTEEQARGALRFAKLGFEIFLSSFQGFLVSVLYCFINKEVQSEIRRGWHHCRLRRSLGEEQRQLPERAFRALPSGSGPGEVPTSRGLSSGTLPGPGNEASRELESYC
Outline: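 Membranes from HEK-293 cells over-expressing human GIPR or GLP-1R, isolated by homogenising, sonicating and ultracentrifuging at 100000×g into HEPES/EDTA/NaCl buffer with protease inhibitors, were used for binding.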

human GIP receptor = biological target: T2, human GIP receptor (Homo sapiens, UniProt P48546); assay: In vitro cellular cAMP assay for GIP receptor efficacy (human adipocytes); assay type: cell-based; settings: for EC50: read-out: hGIPR EC50; for Emax: read-out: hGIPR Emax
T2 construct: human adipocytes endogenously expressing the human GIP receptor; host or cells: human preadipocytes (Lonza) differentiated to adipocytes
T2 sequence (P48546 22-466): T1 sequence (P48546 22-466)
Outline: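 cAMP is read by HTRF (665/620 nm ratio, 1 h after reagents in lysis buffer) following 30 min compound exposure at room temperature. Cells are human preadipocyte-derived adipocytes, differentiated 6 days with insulin, dexamethasone, IBMX (200 μM), PPARγ agonist and L-thyroxine, seeded 5000 per well.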

[2] = biological target: T1, human GIP receptor (hGIPR); assay: In vitro cellular cAMP assay for GIP receptor efficacy (HEK-293 cell line over-expressing receptor); assay type: cell-based
[3] = biological target: T3, human GLP-1 receptor (hGLP-1R) (Homo sapiens, UniProt P43220); assay: Binding assay, displacement of [125I]GLP-1 from HEK-293 membranes over-expressing GLP-1R (SPA); settings: [125I]GLP-1 displacement
T3 sequence (P43220 24-463): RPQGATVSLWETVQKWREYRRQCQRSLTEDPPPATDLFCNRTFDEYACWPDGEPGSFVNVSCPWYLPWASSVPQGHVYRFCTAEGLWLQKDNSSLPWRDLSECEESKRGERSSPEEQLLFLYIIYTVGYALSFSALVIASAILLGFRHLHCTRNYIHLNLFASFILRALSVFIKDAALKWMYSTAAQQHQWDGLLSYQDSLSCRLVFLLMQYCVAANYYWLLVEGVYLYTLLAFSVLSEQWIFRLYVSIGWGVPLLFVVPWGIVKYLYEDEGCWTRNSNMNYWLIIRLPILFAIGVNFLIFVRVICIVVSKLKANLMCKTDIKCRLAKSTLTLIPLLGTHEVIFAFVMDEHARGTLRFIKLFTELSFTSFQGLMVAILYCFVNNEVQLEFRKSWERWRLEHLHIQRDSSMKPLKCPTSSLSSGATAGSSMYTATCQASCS
Procedure: (1) Preparation of Membranes from HEK-293 Cells Over-Expressing GIPR or GLP-1R
HEK-293 cells recombinantly over-expressing GIPR or GLP-1R were grown to 50% confluency, washed with warm 1×PBS (Gibco) and detached in HEPES/EDTA-buffer (100 mM HEPES pH 7.5, 5 mM EDTA). Cells were harvested by centrifugation at 4° C. and 3000×g and the pellets were stored at −80° C. until further processing.
After thawing on ice, pellets were resuspended in HEPES/EDTA-buffer and homogenized on ice for 1 min using Ultra-Turray T25. After subsequent sonification the cell debris was removed by centrifugation at 1000×g and 4° C. Supernatants were then ultra-centrifuged at 100000×g and 4° C. under vacuum for 30 min. Pellets were resuspended in HEPES/EDTA/NaCl-buffer (20 mM HEPES, 1 mM EDTA, 150 mM NaCl; add 1 Complete Mini Protease inhibitor cocktail to 10 ml buffer) and protein content was determined via BCA-Protein assay.
(2) Measurement of Binding Activity of Test Compounds to Human GIPR or GLP-1R

[4] = Solubility assessment (UHPLC-UV of supernatant, target 10 mg/ml); assay type: physicochemical
Outline: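 Peptides at 10 mg/ml (purity-corrected) in 100 mM phosphate pH 7.4, optionally with 2.7 mg/ml m-cresol; gentle agitation 1 h, then 5° C. overnight (24 h). Supernatant after 15 min centrifugation at 2500 RCF quantified by UHPLC-UV, with sequence-based extinction coefficients.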

[5] = biological target: T3, human GLP-1 receptor (hGLP-1R); assay: In vitro cellular cAMP assay for GLP-1 receptor efficacy (HEK-293 cell line over-expressing receptor); assay type: cell-based; settings: HEK-293, 0.1% BSA
[6] = EC50 hGIPR 0.1% BSA, HEK-293, 0.1% BSA
[7] = 100 mM phosphate buffer pH 7.4 (solubility buffer system A), pH 7.4, Solubility buffer system A: 100 mM phosphate buffer pH 7.4, read-out: Soluble amount

Row | IC50 [1] [nM] | EC50 (human GIP receptor) [nM] | Emax (human GIP receptor) [%] | EC50 [2, 6] [nM] | IC50 [3] [nM] | solubility at 24 h [4, 7] [µg/mL] | solubility at 24 h ([4]; pH 7.4, Solubility buffer system C: 100 mM phosphate buffer pH 7.4, 2.7 mg/ml m-cresol, read-out: Soluble amount) [µg/mL] | EC50 [5] [nM] | EC50 ([2]; HEK-293, without albumin (0% HSA), read-out: EC50 hGIPR 0% HSA) [nM] | solubility ([4]; pH 7.4, Soluble amount) [µg/mL] | solubility at 24 h ([4]; pH 7.4, Soluble amount) [µg/mL] | SMILES
1 | 0.5 | 1.2 | 98 | 0.0222 | 183 | 7300 (≈ 1620 µM) | 7200 (≈ 1600 µM) | > 10 |  |  |  | CC[C@H](C)[C@H](NC(=O)[C@H](CCCNC(=N)N)NC(=O)[C@H](CC(=O)O)NC(=O)[C@H](CCCCNC(=O)COCCOCCNC(=O)COCCOCCNC(=O)CC[C@H](NC(=O)CC[C@H](NC(=O)CCCCCCCCCCCCCCCCCCC(=O)O)C(=O)O)C(=O)O)NC(=O)C(C)(C)NC(=O)[C@@H](NC(=O)[C@H](CO)NC(=O)[C@H](CC(C)C)NC(=O)[C@H](CC(=O)O)NC(=O)[C@H](CO)NC(=O)[C@@H](NC(=O)[C@H](Cc1ccccc1)NC(=O)[C@@H](NC(=O)CNC(=O)[C@H](CCC(=O)O)NC(=O)C(C)(C)NC(=O)[C@@H](N)Cc1ccc(O)cc1)[C@@H](C)O)[C@@H](C)CC)[C@@H](C)CC)C(=O)N[C@@H](Cc1c[nH]cn1)C(=O)N[C@@H](CCC(N)=O)C(=O)NC(C)(C)C(=O)N[C@@H](CCC(=O)O)C(=O)N[C@@H](Cc1ccccc1)C(=O)N[C@H](C(=O)N[C@@H](CCC(=O)O)C(=O)N[C@@H](Cc1c[nH]c2ccccc12)C(=O)N[C@@H](CC(C)C)C(=O)N[C@@H](CC(C)C)C(=O)N[C@@H](C)C(=O)N[C@@H](CCC(N)=O)C(=O)N[C@@H](CCCNC(=N)N)C(=O)NCC(N)=O)[C@@H](C)CC [SEQ ID NO: 10, H2N-Y-Aib-E-G-T-F-I-S-D-L-S-I-Aib-K[{AEEA}2-{gGlu}2-C20OH]-D-R-I-H-Q-Aib-E-F-I-E-W-L-L-A-Q-R-G-NH2]
2 | 0.2 | 1.3 | 113 | 0.0192 | 97 | 10700 (≈ 2450 µM) |  | > 10 |  |  |  | CC[C@H](C)[C@H](NC(=O)[C@H](CCCNC(=N)N)NC(=O)[C@H](CC(=O)O)NC(=O)[C@H](CCCCNC(=O)COCCOCCNC(=O)COCCOCCNC(=O)CC[C@H](NC(=O)CCCCCCCCCCCCCCCCCCC(=O)O)C(=O)O)NC(=O)C(C)(C)NC(=O)[C@@H](NC(=O)[C@H](CO)NC(=O)[C@H](CC(C)C)NC(=O)[C@H](CC(=O)O)NC(=O)[C@H](CO)NC(=O)[C@@H](NC(=O)[C@H](Cc1ccccc1)NC(=O)[C@@H](NC(=O)CNC(=O)[C@H](CCC(=O)O)NC(=O)C(C)(C)NC(=O)[C@@H](N)Cc1ccc(O)cc1)[C@@H](C)O)[C@@H](C)CC)[C@@H](C)CC)C(=O)N[C@@H](Cc1c[nH]cn1)C(=O)N[C@@H](CCC(N)=O)C(=O)NC(C)(C)C(=O)N[C@@H](CCC(=O)O)C(=O)N[C@@H](Cc1ccccc1)C(=O)N[C@H](C(=O)N[C@@H](CCC(=O)O)C(=O)N[C@@H](Cc1c[nH]c2ccccc12)C(=O)N[C@@H](CC(C)C)C(=O)N[C@@H](CC(C)C)C(=O)N[C@@H](C)C(=O)N[C@@H](CCC(N)=O)C(=O)N[C@@H](CCCNC(=N)N)C(=O)NCC(N)=O)[C@@H](C)CC [SEQ ID NO: 11, H2N-Y-Aib-E-G-T-F-I-S-D-L-S-I-Aib-K[{AEEA}2-gGlu-C20OH]-D-R-I-H-Q-Aib-E-F-I-E-W-L-L-A-Q-R-G-NH2]
3 | 0.2 | 0.8 | 110 | 0.0821 | 935 |  |  | > 10 | 0.00137 | 7400 (≈ 1700 µM) |  | CC[C@H](C)[C@H](NC(=O)[C@H](CCCNC(=N)N)NC(=O)[C@H](CC(=O)O)NC(=O)[C@H](CCCCNC(=O)COCCOCCNC(=O)COCCOCCNC(=O)CC[C@H](NC(=O)CCCCCCCCCCCCCCCCC(=O)O)C(=O)O)NC(=O)C(C)(C)NC(=O)[C@@H](NC(=O)[C@H](CO)NC(=O)[C@H](CC(C)C)NC(=O)[C@H](CC(=O)O)NC(=O)[C@H](CO)NC(=O)[C@@H](NC(=O)[C@@](C)(CC)NC(=O)[C@@H](NC(=O)CNC(=O)[C@H](CCC(=O)O)NC(=O)C(C)(C)NC(=O)[C@@H](N)Cc1ccc(O)cc1)[C@@H](C)O)[C@@H](C)CC)[C@@H](C)CC)C(=O)N[C@@H](Cc1c[nH]cn1)C(=O)N[C@@H](CCC(N)=O)C(=O)N[C@@H](CCC(=O)O)C(=O)N[C@@H](CCC(=O)O)C(=O)N[C@@](C)(Cc1ccccc1)C(=O)N[C@H](C(=O)N[C@@H](CCC(=O)O)C(=O)N[C@@H](Cc1c[nH]c2ccccc12)C(=O)N[C@@H](CC(C)C)C(=O)N[C@@H](CC(C)C)C(=O)N[C@@H](C)C(=O)N[C@@H](CCC(N)=O)C(=O)N[C@@H](CCCNC(=N)N)C(=O)NCC(N)=O)[C@@H](C)CC [SEQ ID NO: 17, H2N-Y-Aib-E-G-T-Iva-I-S-D-L-S-I-Aib-K[{AEEA}2-gGlu-C18OH]-D-R-I-H-Q-E-E-Mph-I-E-W-L-L-A-Q-R-G-NH2]
4 | 0.2 | 0.4 | 92 | 0.0531 | 73 |  |  | > 10 |  |  | > 9200 | CC[C@H](C)[C@H](NC(=O)[C@H](Cc1ccccc1)NC(=O)[C@H](CCC(=O)O)NC(=O)C(C)(C)NC(=O)[C@H](CCC(N)=O)NC(=O)[C@H](CCCCNC(=O)COCCOCCNC(=O)COCCOCCNC(=O)CC[C@H](NC(=O)CCCCCCCCCCCCCCCCC(=O)O)C(=O)O)NC(=O)[C@H](CCC(N)=O)NC(=O)[C@H](CCC(=O)O)NC(=O)[C@H](CCC(=O)O)NC(=O)[C@H](CC(C)C)NC(=O)C(C)(C)NC(=O)[C@@H](NC(=O)[C@H](CO)NC(=O)[C@H](CC(C)C)NC(=O)[C@H](CC(=O)O)NC(=O)[C@H](CO)NC(=O)[C@@H](NC(=O)[C@H](Cc1ccccc1)NC(=O)[C@@H](NC(=O)CNC(=O)[C@H](CCC(=O)O)NC(=O)C(C)(C)NC(=O)[C@@H](N)Cc1ccc(O)cc1)[C@@H](C)O)[C@@H](C)CC)[C@@H](C)CC)C(=O)N[C@@H](CCC(=O)O)C(=O)N[C@@H](Cc1c[nH]c2ccccc12)C(=O)N[C@@H](CC(C)C)C(=O)N[C@@H](CC(C)C)C(=O)N[C@@H](C)C(=O)N[C@@H](CCC(N)=O)C(=O)NCC(=O)N1CCC[C@H]1C(=O)N[C@@H](CO)C(=O)N[C@@H](CO)C(=O)NCC(=O)N[C@@H](CCC(=O)O)C(=O)N1CCC[C@H]1C(=O)N1CCC[C@H]1C(=O)N1CCC[C@H]1C(=O)N[C@@H](CO)C(N)=O [SEQ ID NO: 38, H2N-Y-Aib-E-G-T-F-I-S-D-L-S-I-Aib-L-E-E-Q-K[{AEEA}2-gGlu-C18OH]-Q-Aib-E-F-I-E-W-L-L-A-Q-G-P-S-S-G-E-P-P-P-S-NH2]
